Experimental data reported in patent US11465965B2, “Double-headed protease inhibitor” (UBE INDUSTRIES, LTD., priority 2017, dated 2022).
Counter-ions that a name gives are not always drawn. Like-named read-outs stand apart in the source and are kept apart here.

How the values were obtained:
[1] = target: T1, Human recombinant enteropeptidase (Homo sapiens, UniProt P98073); experiment: Human enteropeptidase inhibition test; type: biochemical; conditions: read-out: Inhibition rate (enteropeptidase); for inhibition at 0.001 µM: compound concentration 1 nM
T1 construct: purchased BIO Vision Inc. 7529-50
Method: (Test Example 1): Human Enteropeptidase Inhibition Test
Human recombinant enteropeptidase (manufactured by BIO Vision Inc., catalog no.: 7529-50) was diluted with an assay buffer (50 mM tricine (pH8.0), 0.01 W/V % Tween 20, 10 mM CaCl2) to prepare an […] enzyme solution. Then, 5FAM-Abu-Gly-Asp-Asp-Lys-Ile-Val-Gly-Gly-Lys (CPQ2)-Lys-Lys-NH2 (manufactured by CHINESE PEPTIDE COMPANY, purity: 94.5) was diluted with the assay buffer to prepare a 1.5 μM substrate solution. Each test compound was dissolved into DMSO, then diluted with the assay buffer 100 times, and further appropriately diluted with an assay buffer comprising 1% DMSO to prepare each compound solution. 10 μL of the compound solution, 15 μL of the assay buffer, and 50 μL of the substrate solution were added to a 96 well black plate (manufactured by Thermo Fisher Scientific Inc., code no.: 9502867), mixed, then 25 μL of the enzyme solution was added thereto, and mixed to start the reaction. Fluorescence intensities at excitation wavelength 485 nm and fluorescence wavelength 535 nm were measured by using a fluorescence plate reader (Flex station 3) (Test compound addition group). Also, the same reaction as described above except for not adding each test compound was carried out (Test compound non-addition group). Additionally, the same reaction as described above except for not adding each test compound and the enzyme was carried out (Control group). Inhibition rate was calculated by the following equation using fluorescence intensity after 20 minutes of reaction start. Inhibition rate (%)=(1−(fluorescence intensity of Test compound addition group−fluorescence intensity of Control group)÷(fluorescence intensity of Test compound non-addition group−fluorescence intensity of Control group))×100

[2] = target: T2, Human recombinant trypsin (Homo sapiens, UniProt P07477); experiment: Human trypsin inhibition test; type: biochemical; conditions: 20 minutes after reaction start, read-out: Inhibition rate (trypsin); for inhibition at 0.1 µM: compound concentration 100 nM; for inhibition at 0.01 µM: compound concentration 10 nM; for inhibition at 0.001 µM: compound concentration 1 nM
T2 construct: purchased Wako Pure Chemical Industries, Ltd. 206-17171
Method: (Test Example 2): Human Trypsin Inhibition Test
Human recombinant trypsin (manufactured by Wako Pure Chemical Industries, Ltd., code no.: 206-17171) was diluted with an assay buffer (0.1 M Tris-HCl (pH8.0), 0.15 M NaCl, 10 mM CaCl2, 0.05% Brij35) to prepare a 10 ng/mL enzyme solution. Then, Boc-Phe-Ser-Arg-MCA (manufactured by PEPTIDE INSTITUTE, INC., code no.: 3107-v) was diluted with the assay buffer to prepare a 40 μM substrate solution. Each test compound was dissolved into DMSO, then diluted with the assay buffer 100 times, and further appropriately diluted with an assay buffer comprising 1% DMSO to prepare each compound solution. 10 μL of the compound solution, 15 μL of the assay buffer, and 50 μL of the substrate solution were added to a 96 well black plate (manufactured by Thermo Fisher Scientific Inc., code no.: 9502867), mixed, and then 25 μL of the enzyme solution was added thereto, and mixed to start the reaction. Fluorescence intensities at excitation wavelength 355 nm and fluorescence wavelength of 460 nm were measured by using a fluorescence plate reader (Flex station 3) (Test compound addition group). Also, the same reaction as described above except for not adding each test compound was carried out (Test compound non-addition group). Additionally, the same reaction as described above except for not adding each test compound and the enzyme was carried out (Control group). Inhibition rate was calculated by the following equation using fluorescence intensity after 20 minutes of reaction start. Inhibition rate (%)=(1−(fluorescence intensity of Test compound addition group−fluorescence intensity of Control group)[…](fluorescence intensity of Test compound non-addition group−fluorescence intensity of Control group))×100

[3] = Rat pharmacokinetic (PK) test (plasma concentration after oral administration); conditions: male, SD
Method: Each test compound was suspended in a 0.5 W/V % methylcellulose 400 solution to prepare a suspension, and the resulting suspension was orally administered to a male SD rat of 7 to 8-week old (weight: 180 to 250 g). After 0.25, 0.5, 1, 2, 4, 8, and 24 hour(s) of the administration of each test compound, blood (EDTA-added blood) was collected from jugular vein under isoflurane inhalation anesthesia. […] To the resulting blood plasma was added acetonitrile, a mixed solvent of acetonitrile and water (1:1 (V/V)), or a mixed solvent of acetonitrile and 0.1 M hydrochloric acid (1:1 (V/V)), then the resulting mixture was mixed at 750 rpm for 3 minutes in a shaker, and subjected to centrifugal separation at 3700 rpm for 2 minutes in a centrifuge to remove proteins. The resulting sample was subjected to LC (liquid chromatography)/MS (mass spectrometry) measurement under the following measurement conditions.
Each compound concentration in blood plasma at each time of blood collection was calculated according to the internal standard method, and, area under the plasma concentration vs. time curve (AUCall (Area Under Curve)) was calculated according to the trapezoidal method.
The LC and MS systems used in the present test are as follows.
LC: LC20 or LC30 HPLC system manufactured by Shimadzu Corporation
Column: Phenomenex Kinetex C18 (50×2.1 mm, 2.6 μm)
Column temperature: 40° C.
Mobile phase A: aqueous solution with 0.1% formic acid, Mobile phase B: 50% acetonitrile/methanol solution with 0.1% formic acid

DIO mouse = experiment: Anti-obesity effect test using DIO mouse; type: in vivo; conditions: 336 h, DIO mice, vs vehicle group, read-out: Weight loss rate; for inhibition in vivo at 50 mg/kg: oral 50 mg/kg once daily for 2 weeks
Method: (Test Example 4): Anti-Obesity Effect Test Using DIO Mouse
Diet-induced obesity (DIO) mice (D-12492 diet, male, C57BL-DIO, 26 to 28-week old) were orally administered with a 0.5 W/V % methylcellulose suspension comprising each test compound (Compound administration group, 5 or 6 mice/group) or a 0.5 W/V % methylcellulose suspension (Compound non-administration group (Vehicle group), 6 mice/group) once daily for 2 weeks. Weight loss rate was calculated by the following equation. Weight loss rate (%) of each Compound administration group−(1−average weight at the last day of the test of each Compound administration group/average weight at the last day of the test of Vehicle group)×100

[4] = compound concentration 100 nM, 20 minutes after reaction start
[5] = compound concentration 10 nM, 20 minutes after reaction start
[6] = 20 minutes after reaction start

T1 sequence (P98073 whole entry): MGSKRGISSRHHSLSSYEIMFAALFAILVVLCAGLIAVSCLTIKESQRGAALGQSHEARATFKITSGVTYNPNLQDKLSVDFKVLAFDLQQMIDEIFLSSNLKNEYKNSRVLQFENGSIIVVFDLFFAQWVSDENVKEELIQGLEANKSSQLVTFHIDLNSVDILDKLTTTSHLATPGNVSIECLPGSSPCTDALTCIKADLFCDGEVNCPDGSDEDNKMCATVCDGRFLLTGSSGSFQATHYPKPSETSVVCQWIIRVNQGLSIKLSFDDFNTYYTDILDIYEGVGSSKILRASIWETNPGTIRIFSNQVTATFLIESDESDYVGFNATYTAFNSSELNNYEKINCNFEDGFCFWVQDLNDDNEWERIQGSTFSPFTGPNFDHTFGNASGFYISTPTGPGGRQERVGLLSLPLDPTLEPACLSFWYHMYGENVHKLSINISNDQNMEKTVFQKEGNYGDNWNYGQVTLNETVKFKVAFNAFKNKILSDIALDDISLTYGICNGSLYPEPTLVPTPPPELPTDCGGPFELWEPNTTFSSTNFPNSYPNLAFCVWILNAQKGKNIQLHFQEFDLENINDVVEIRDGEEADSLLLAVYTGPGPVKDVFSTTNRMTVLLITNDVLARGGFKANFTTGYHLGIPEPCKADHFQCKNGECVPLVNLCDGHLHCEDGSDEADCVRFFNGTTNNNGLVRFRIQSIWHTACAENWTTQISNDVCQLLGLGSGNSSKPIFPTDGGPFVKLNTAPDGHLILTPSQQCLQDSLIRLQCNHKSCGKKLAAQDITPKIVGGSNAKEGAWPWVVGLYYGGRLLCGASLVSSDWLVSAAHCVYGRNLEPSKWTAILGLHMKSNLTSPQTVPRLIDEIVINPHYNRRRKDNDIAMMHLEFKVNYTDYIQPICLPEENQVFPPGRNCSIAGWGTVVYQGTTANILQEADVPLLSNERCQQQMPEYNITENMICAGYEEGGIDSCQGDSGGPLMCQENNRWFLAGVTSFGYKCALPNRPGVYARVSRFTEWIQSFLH

Compound: N=C(N)Nc1ccc(C(=O)Oc2cccc(CNS(=O)(=O)N[C@@H](CC(=O)O)C(=O)O)c2)cc1 [Reference Example 73-(b), (S)-2-((N-(3-((4-guanidinobenzoyl)oxy)benzyl)sulfamoyl)amino)succinic acid trifluoroacetate]
- inhibition at 0.1 µM [1, 4]: ≥ 50%
- inhibition at 0.1 µM [2]: ≥ 50%

Compound: N=C(N)Nc1ccc(C(=O)Oc2ccc(COC(=O)N(Cc3cccc(C(=O)O)c3)[C@@H](CC(=O)O)C(=O)NCCOCCOCCOCCOCCNC(=O)[C@H](CC(=O)O)N(Cc3cccc(C(=O)O)c3)C(=O)OCc3ccc(OC(=O)c4ccc(NC(=N)N)cc4)cc3)cc2)cc1 [16-(b), (3S,22S)-3,22-bis((3-carboxybenzyl) (((4-(14-guanidinobenzoyl)oxy)benzyl)oxy)carbonyl)amino)-4,21-dioxo-8,11,14,17-tetraoxa-5,20-diazatetracosane-1,24-dioic acid trifluoroacetate]
- AUC ([3]; 9 mg/kg): ≤ 100 ng·h/mL
- inhibition at 0.01 µM [1]: ≥ 50%
- inhibition at 0.1 µM [1]: ≥ 50%
- inhibition at 0.01 µM [2]: ≥ 50%
- inhibition at 0.1 µM [2]: ≥ 50%

Compound: Cl.N=C(N)Nc1ccc(C(=O)Oc2ccc(CNS(=O)(=O)N(CCOCCOCCOCCN([C@@H](CC(=O)O)C(=O)O)S(=O)(=O)NCc3ccc(OC(=O)c4ccc(NC(=N)N)cc4)cc3)[C@@H](CC(=O)O)C(=O)O)cc2)cc1 [3-(c)]
- AUC ([3]; 10 mg/kg): ≤ 100 ng·h/mL

Compound: N=C(N)Nc1ccc(C(=O)Oc2ccc(CN(CCOCCOCCN(Cc3ccc(OC(=O)c4ccc(NC(=N)N)cc4)cc3)S(=O)(=O)N[C@@H](CC(=O)O)C(=O)O)S(=O)(=O)N[C@@H](CC(=O)O)C(=O)O)cc2)cc1 [24-(a)]
- inhibition in vivo at 50 mg/kg (DIO mouse): ≥ 4%
- inhibition at 0.01 µM [1, 5]: ≥ 50%
- inhibition at 0.1 µM [1, 4]: ≥ 50%
- inhibition at 0.001 µM [2]: ≥ 50%
- inhibition at 0.01 µM [2]: ≥ 50%
- inhibition at 0.1 µM [2]: ≥ 50%

Compound: Cl.N=C(N)Nc1ccc(C(=O)Oc2ccc(CNS(=O)(=O)N(CCOCCOCCOCCN([C@@H](CC(=O)O)C(=O)O)S(=O)(=O)NCc3ccc(OC(=O)c4ccc(NC(=N)N)cc4)cc3)[C@@H](CC(=O)O)C(=O)O)cc2)cc1 [3-(c), 2S,16S)-3,15-bis(N-(4-(4-guanidinobenzoyl)oxy)benzyl)sulfamoyl)-6,9,12-trioxa-3,15-diazaheptadecane-1,2,16,17-tetracarboxylic acid hydrochloride]
- inhibition in vivo at 100 mg/kg (DIO mouse; oral 100 mg/kg once daily for 2 weeks): ≥ 4%

Compound: N=C(N)Nc1ccc2c(c1)CCCOc1c(cccc1C(=O)N(CCOCCOCCN(C(=O)c1cccc3c1OCCCc1cc(NC(=N)N)ccc1C(=O)O3)[C@@H](CC(=O)O)C(=O)O)[C@@H](CC(=O)O)C(=O)O)OC2=O [20-(d), (2S,13S)-3,12-bis(10-guanidino-13-oxo-6,7,8,13-tetrahydrodibenzo[b,f][1,4]dioxecin-4-carbonyl)-6,9-dioxa-3,12-diazatetradecane-1,2,13,14-tetracarboxylic acid]
- inhibition in vivo at 50 mg/kg (DIO mouse): ≥ 4%

Compound: N=C(N)Nc1ccc(C(=O)Oc2cccc(C(=O)N[C@@H](CC(=O)O)C(=O)O)c2)cc1 [Reference Example 87-(d), (S)-2-(3-((4-guanidinobenzoyl)oxy)benzamide)succinic acid]
- inhibition at 0.1 µM [1, 4]: ≥ 50%
- inhibition at 0.1 µM [2]: ≥ 50%

Compound: N=C(N)Nc1ccc(C(=O)Oc2ccc(CNS(=O)(=O)N(Cc3cccc(C(=O)O)c3)[C@@H](CC(=O)O)C(=O)O)cc2)cc1 [Reference Example 52-(b), (S)-2-((3-carboxybenzyl)(N-(4-((4-guanidinobenzoyl)oxy)benzyl)sulfamoyl)amino)succinic acid trifluoroacetate]
- inhibition at 0.1 µM [1, 4]: ≥ 50%
- inhibition at 0.1 µM [2]: ≥ 50%

Compound: N=C(N)Nc1ccc(C(=O)Oc2ccc(CNS(=O)(=O)N[C@@H](CC(=O)O)C(=O)O)cc2)cc1 [Reference Example 55-(b), (S)-2-((N-(4-((4-guanidinobenzoyl)oxy)benzyl)sulfamoyl)amino)succinic acid]
- inhibition at 0.1 µM [1, 4]: ≥ 50%
- inhibition at 0.1 µM [2]: ≥ 50%

Compound: N=C(N)Nc1ccc(C(=O)Oc2ccc(COC(=O)NC(CC(=O)O)C(=O)N[C@@H](CC(=O)O)C(=O)O)cc2)cc1 (stereo partly drawn) [Reference Example 41-(b), (2S)-2-(3-carboxy-2-((((4-((4-guanidinobenzoyl)oxy)benzyl)oxy)carbonyl)amino)propaneamine)succinic acid trifluoroacetate]
- inhibition at 0.1 µM [1, 4]: ≥ 50%
- inhibition at 0.1 µM [2]: ≥ 50%

Compound: N=C(N)Nc1ccc(C(=O)Oc2ccc(COC(=O)N(Cc3cccc(C(=O)O)c3)[C@@H](CC(=O)O)C(=O)O)cc2)cc1 [Reference Example 49-(b), (S)-2-(3-carboxybenzyl) (((4-((4-guanidinobenzoyl)oxy)benzyl)oxy)carbonyl)amino)succinic acid trifluoroacetate]
- inhibition at 0.1 µM [1, 4]: ≥ 50%
- inhibition at 0.1 µM [2]: ≥ 50%

Compound: N=C(N)Nc1ccc(C(=O)Oc2ccc(CNS(=O)(=O)N(CCOCCOCCN(C(CC(=O)O)CC(=O)O)S(=O)(=O)NCc3ccc(OC(=O)c4ccc(NC(=N)N)cc4)cc3)C(CC(=O)O)CC(=O)O)cc2)cc1 [23-(c), 3,3′-(((ethane-1,2-diylbis(oxy))bis(ethane-2,1-diyl))bis((N-(4-((4-guanidinobenzoyl)oxy)benzyl)sulfamoyl)azanediyl))dipentanedioic acid]
- inhibition at 0.01 µM [1, 5]: ≥ 50%
- inhibition at 0.1 µM [1, 4]: ≥ 50%
- inhibition at 0.001 µM [2]: ≥ 50%
- inhibition at 0.01 µM [2]: ≥ 50%
- inhibition at 0.1 µM [2]: ≥ 50%

Compound: CN(Cc1ccc(OC(=O)c2ccc(NC(=N)N)cc2)cc1)S(=O)(=O)N(CCOCCOCCN([C@@H](CC(=O)O)C(=O)O)S(=O)(=O)N(C)Cc1ccc(OC(=O)c2ccc(NC(=N)N)cc2)cc1)[C@@H](CC(=O)O)C(=O)O [22-(a), (2S,13S)-3,12-bis(N-(4-((4-guanidinobenzoyl)oxy)benzyl)-N-methylsulfamoyl)-6,9-dioxa-3,12-diazatetradecane-1,2,13,14-tetracarboxylic acid trifluoroacetate]
- inhibition at 0.001 µM [1, 6]: ≥ 50%
- inhibition at 0.01 µM [1, 5]: ≥ 50%
- inhibition at 0.001 µM [2]: ≥ 50%
- inhibition at 0.01 µM [2]: ≥ 50%
- inhibition at 0.1 µM [2]: ≥ 50%

Compound: N=C(N)Nc1ccc(C(=O)Oc2ccc(COC(=O)N[C@@H](CC(=O)O)C(=O)O)cc2)cc1 [Reference Example 31-(b), (5)-2-((((4-((4-guanidinobenzoyl)oxy)benzyl)oxy)carbonyl)amino)succinic acid trifluoroacetate]
- inhibition at 0.1 µM [1, 4]: ≥ 50%
- inhibition at 0.1 µM [2]: ≥ 50%

Compound: N=C(N)Nc1ccc(C(=O)Oc2cccc(CNS(=O)(=O)N(CCOCCOCCN([C@@H](CC(=O)O)C(=O)O)S(=O)(=O)NCc3cccc(OC(=O)c4ccc(NC(=N)N)cc4)c3)[C@@H](CC(=O)O)C(=O)O)c2)cc1 [25-(b), (2S,13S)-3,12-bis(N-(3-((4-guanidinobenzoyl)oxy)benzyl)sulfamoyl)-6,9-dioxa-3,12-diazatetradecane-1,2,13,14-tetracarboxylic acid]
- inhibition in vivo at 50 mg/kg (DIO mouse): ≥ 4%
- inhibition at 0.001 µM [1, 6]: ≥ 50%
- inhibition at 0.01 µM [1, 5]: ≥ 50%
- inhibition at 0.1 µM [1, 4]: ≥ 50%
- inhibition at 0.01 µM [2]: ≥ 50%
- inhibition at 0.1 µM [2]: ≥ 50%
